Results on 15 molecules are retold here after US8349868B2, “Azaquinolones that inhibit prolyl hydroxylase” (Amgen Inc., priority 2007, dated 2013).

What all share (type): biochemical
Experiment [1] addresses T1, Collagen Prolyl Hydroxylase II (CPH2) (Homo sapiens, UniProt O15460).
T1 construct: made in house; host or cells: Trichoplusia ni insect cells (baculovirus)
Kind of experiment: Collagen prolyl hydroxylase II activity by radiometric HPLC measurement of 2-oxoglutarate conversion to succinic acid. To be noted: Table 5; 50 μM 2-oxoglutarate, 100 μM PPG10, 10 μM FeSO4. Here is the method:
Assay conditions were established in separate studies to define dependence on dithiothreitol (DTT), ascorbate, and catalase, and to define reaction linearity and Km values for 2-oxoglutarate (2-OG; PerkinElmer LAS, Shelton, Conn. or Moravek Biochemicals, Brea, Calif.), FeSO4, and (Pro-Pro-Gly)10 peptide (PPG10; Peptides International, Louisville, Ky.). […] Product inhibition was not evident. Compounds were dissolved and serially diluted in 100% DMSO for potency determination. Assay Buffer consisted of Tris-HCl, pH 7.5, 0.2 mM DTT, and 0.5 mg/ml catalase. PPG10 peptide was dissolved in 0.25% acetic acid and denatured by boiling for 5 minutes then placed on ice for 5 minutes. The denatured PPG10 was then pre-mixed with 1 M ascorbate, prepared in water, and the mixture diluted with Assay Buffer to yield a working solution of 5× peptide and ascorbate. FeSO4 was freshly dissolved in water and diluted to a 2.8× concentration in Assay Buffer. Enzyme stocks were diluted to a 5× concentration in Assay Buffer. Example compounds plus FeSO4 solution were mixed, followed by addition of 5× enzyme solutions. After 10 minutes gentle mixing at room temperature, the 5× peptide solution was added. After another 10 minutes gentle mixing at room temperature, a 5× stock of 2-OG was added to initiate the reaction. Final concentrations in the assay were: 50 mM Tris-HCl, pH 7.5, 0.2 mM DTT, 0.5 mg/mL catalase, 10 μM FeSO4, 100 μM PPG10, 50 μM 5-[^14C]-2-oxoglutarate ([…]), 1 mM ascorbate, and 4% DMSO. Reactions were gently mixed at room temperature for 1 hour and terminated by addition of an equal volume of 0.02 NH2SO4. Unless otherwise indicated, all reagents were obtained from Sigma and were the highest grade available.
A portion of each terminated reaction was auto-injected into a Polypore H column (PerkinElmer, Waltham, Mass.) at a rate of 0.3 mL/min with 0.01 N H2SO4 as the mobile phase. The HPLC method employed exploits the difference in pKa of the 2-OG and SA carboxylates to chromatographically separate substrate from product at low pH on ion-exchange resin, as described by Cunliffe, et al (Biochem J., 240, 617-619 (1986)) and Kaule and Gunzler (Anal. Biochem., 184, 291-297 (1990)). An Agilent 1100 HPLC System with dual quaternary pumps, column switching valve, and dual columns was used to resolve product from substrate. The Agilent 1100 Multiple Wavelength Detector indicated UV absorption of the substrate and product peaks at 210 nm and a Beta-RAM Model 2 radiation detector with In-Flow 2:1 scintillation cocktail (IN/US Systems Inc.) enabled quantitation of the 2 radioactive peaks. Laura Lite software (IN/US, Tampa, Fla.) was used to collect and analyze radiometric data. AUC measurements were converted to percent turnover of 2-OG. To standardize across studies, 2-OG conversion was normalized to percent of control (POC) values using reactions that lacked enzyme or inhibitor as low and high controls, respectively. POC data was fitted to the 4-parameter logistic model (A+((B−A)/(1+((x/C)^D)))) using ActivityBase (IDBS, Alameda Calif.) where A is the minimum POC value, B is the maximum POC value, D is the slope factor, and C is compound concentration at the inflection point (IC50, micromolar).
The Baculovirus Expression Vector System (BEVS) from Invitrogen was used to express collagen prolyl 4-hydroxylase (CPH) in Trichoplusia ni insect cells. Active collagen prolyl 4-hydroxylase is an oligomeric protein that exists as an α2β2 tetramer. The alpha subunits incorporated into the tetramer can be either collagen prolyl 4-hydroxylase α1 (GenBank reference sequence NM_000917) or collagen prolyl 4-hydroxylase α2 (GenBank reference sequence NM_004199). The beta subunit, collagen prolyl 4-hydroxylase β (GenBank reference sequence NM_000918), is common to both forms of the tetramer. […]

Experiment [2] concerns the target T2, Collagen Prolyl Hydroxylase I (CPH1) (Homo sapiens, UniProt P13674).
T2 construct: made in house; host or cells: Trichoplusia ni insect cells (baculovirus)
Kind of experiment: Collagen prolyl hydroxylase I activity by radiometric HPLC measurement of 2-oxoglutarate conversion to succinic acid. To be noted: Table 5; 50 μM 2-oxoglutarate, 100 μM PPG10, 10 μM FeSO4.
Description: Product inhibition was not evident. Compounds were dissolved and serially diluted in 100% DMSO for potency determination. Assay Buffer consisted of Tris-HCl, pH 7.5, 0.2 mM DTT, and 0.5 mg/ml catalase. PPG10 peptide was dissolved in 0.25% acetic acid and denatured by boiling for 5 minutes then placed on ice for 5 minutes. The denatured PPG10 was then pre-mixed with 1 M ascorbate, prepared in water, and the mixture diluted with Assay Buffer to yield a working solution of 5× peptide and ascorbate. FeSO4 was freshly dissolved in water and diluted to a 2.8× concentration in Assay Buffer. Enzyme stocks were diluted to a 5× concentration in Assay Buffer. Example compounds plus FeSO4 solution were mixed, followed by addition of 5× enzyme solutions. After 10 minutes gentle mixing at room temperature, the 5× peptide solution was added. After another 10 minutes gentle mixing at room temperature, a 5× stock of 2-OG was added to initiate the reaction. Final concentrations in the assay were: 50 mM Tris-HCl, pH 7.5, 0.2 mM DTT, 0.5 mg/mL catalase, 10 μM FeSO4, 100 μM PPG10, 50 μM 5-[^14C]-2-oxoglutarate (23-37 cpm/μmol), 1 mM ascorbate, and 4% DMSO. Reactions were gently mixed at room temperature for 1 hour and terminated by addition of an equal volume of 0.02 NH2SO4.
A portion of each terminated reaction was auto-injected into a Polypore H column (PerkinElmer, Waltham, Mass.) at a rate of 0.3 mL/min with 0.01 N H2SO4 as the mobile phase. […] An Agilent 1100 HPLC System with dual quaternary pumps, column switching valve, and dual columns was used to resolve product from substrate. The Agilent 1100 Multiple Wavelength Detector indicated UV absorption of the substrate and product peaks at 210 nm and a Beta-RAM Model 2 radiation detector with In-Flow 2:1 scintillation cocktail (IN/US Systems Inc.) enabled quantitation of the 2 radioactive peaks. Laura Lite software (IN/US, Tampa, Fla.) was used to collect and analyze radiometric data. AUC measurements were converted to percent turnover of 2-OG. To standardize across studies, 2-OG conversion was normalized to percent of control (POC) values using reactions that lacked enzyme or inhibitor as low and high controls, respectively. POC data was fitted to the 4-parameter logistic model (A+((B−A)/(1+((x/C)^D)))) using ActivityBase (IDBS, Alameda Calif.) where A is the minimum POC value, B is the maximum POC value, D is the slope factor, and C is compound concentration at the inflection point (IC50, micromolar).

Experiment [3] concerns the target HIF PHD2 (Homo sapiens, UniProt Q9GZT9). Kind of experiment: PHD2 inhibition assay, TR-FRET detection with VCB-Eu. On the procedure: Inhibition of HIF PHD2 activity was quantified utilizing the TR-FRET technology. HIF PHD2 catalyzes a hydroxyl modification on the proline residue of the P564-HIF1α peptide substrate (Biotin-[…] (SEQ ID NO: 7)) resulting in recognition and binding of the europylated Von Hippel-Lindau protein (pVHL), elongin B and elongin C heterotrimeric (VCB-Eu) complex.
The PHD2 inhibition assay was executed by addition of freshly dissolved FeCl2 to 178.57 μM (100 μM final concentration) in PHD2 Reaction Buffer containing 30 mM MES, pH 6, 10 mM NaCl, 0.25% Brij-35, 0.01% BSA, and 1% DMSO. 28 μL of the iron solution and 2 μL of inhibitor compounds serially diluted in 100% DMSO (5% DMSO final) were added to black polypropylene 96-well microtiter plates. To that, 10 μL of 10 nM PHD2 (2 nM final) was added to all wells of the plate except for the 8 wells of column 12 (LO control), and allowed to incubate at room temperature on the shaker for one hour. Column 6 was the HI control containing PHD2 enzyme and 5% DMSO vehicle, but no inhibitor compound. To initiate the PHD2 enzymatic reaction, 10 μL of a solution containing 500 nM P564-HIF1α peptide (100 nM final), 10 mM ascorbic acid (2 mM final), and 1.25 μM 2-oxoglutarate (α-ketoglutarate; 0.25 μM final) in PHD2 Reaction Buffer was added to all wells of the plate and allowed to incubate on the shaker at room temperature for one hour.
The reaction was terminated by addition of 25 μL TR-FRET Buffer (50 mM TRIS-HCl, pH 9, 100 mM NaCl, 0.05% BSA, and 0.5% Tween-20) containing 150 mM succinate (product inhibitor; 50 mM final), 75 nM streptavidin-APC (25 nM final), and 7.5 nM VCB-Eu (2.5 nM final). The TR-FRET detection reagents were placed on a shaker for 1 hour to reach binding equilibrium before reading on the Discovery platform (PerkinElmer). Europium is excited at 315 nm and phosphoresces at 615 nm with a large Stoke's shift. APC, in turn, emits at 655 nm upon excitation at 615 nm. The TR-FRET signal is measured as the ratio of the APC 655 nm signal divided by the internal europium reference 615 nm emission signal.
The POC (percentage of control) was determined by comparing the signal from hydroxylated peptide substrate in the enzyme reaction containing inhibitor compound with that from PHD2 enzyme with DMSO vehicle alone (HI control), and no enzyme (LO control). POC was calculated using the formula: % control (POC)=(cpd−average LO)/(average HI−average LO)*100. Data (consisting of POC and inhibitor concentration in μM) was fitted to a 4-parameter equation (y=A+((B−A)/(1+((x/C)^[…]))), where A is the minimum y (POC) value, B is the maximum y (POC), C is the x (cpd concentration) at the point of inflection and D is the slope factor) using a Levenburg-Marquardt non-linear regression algorithm.

Where [4] appears, read: Table 5, Example and Comparative Compounds.
[5] abbreviates: Table 4, TR-FRET, 2 nM PHD2, 100 nM P564-HIF1α peptide, 0.25 μM 2-oxoglutarate.

T1 sequence (O15460 22-533 isoform O15460-2): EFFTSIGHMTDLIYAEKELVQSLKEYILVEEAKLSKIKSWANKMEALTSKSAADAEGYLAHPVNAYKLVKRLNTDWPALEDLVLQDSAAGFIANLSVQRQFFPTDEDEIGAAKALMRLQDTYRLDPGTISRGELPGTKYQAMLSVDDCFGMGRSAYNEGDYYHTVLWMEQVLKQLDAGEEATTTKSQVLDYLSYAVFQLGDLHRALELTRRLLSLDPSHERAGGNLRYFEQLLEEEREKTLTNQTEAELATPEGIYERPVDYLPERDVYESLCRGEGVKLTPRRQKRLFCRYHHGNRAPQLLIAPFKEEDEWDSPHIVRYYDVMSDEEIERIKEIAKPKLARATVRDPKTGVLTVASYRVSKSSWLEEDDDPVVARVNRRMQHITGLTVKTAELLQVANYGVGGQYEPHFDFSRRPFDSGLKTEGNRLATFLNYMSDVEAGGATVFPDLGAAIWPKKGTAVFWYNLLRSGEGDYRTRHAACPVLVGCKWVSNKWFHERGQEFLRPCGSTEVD
T1 sequence (P07237 18-508 partner): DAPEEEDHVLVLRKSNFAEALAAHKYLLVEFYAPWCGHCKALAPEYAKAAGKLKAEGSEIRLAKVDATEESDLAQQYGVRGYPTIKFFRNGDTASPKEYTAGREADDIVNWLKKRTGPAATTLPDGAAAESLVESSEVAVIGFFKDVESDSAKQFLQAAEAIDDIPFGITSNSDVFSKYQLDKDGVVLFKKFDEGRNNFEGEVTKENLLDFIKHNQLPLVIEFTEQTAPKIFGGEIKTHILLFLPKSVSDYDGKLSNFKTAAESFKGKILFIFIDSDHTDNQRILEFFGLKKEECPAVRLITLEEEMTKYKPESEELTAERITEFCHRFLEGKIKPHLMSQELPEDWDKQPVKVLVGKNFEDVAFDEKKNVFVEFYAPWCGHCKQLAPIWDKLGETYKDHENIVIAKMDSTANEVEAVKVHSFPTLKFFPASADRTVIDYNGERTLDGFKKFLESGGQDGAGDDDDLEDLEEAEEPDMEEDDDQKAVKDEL
Chain of HIF PHD2 (Q9GZT9 whole entry): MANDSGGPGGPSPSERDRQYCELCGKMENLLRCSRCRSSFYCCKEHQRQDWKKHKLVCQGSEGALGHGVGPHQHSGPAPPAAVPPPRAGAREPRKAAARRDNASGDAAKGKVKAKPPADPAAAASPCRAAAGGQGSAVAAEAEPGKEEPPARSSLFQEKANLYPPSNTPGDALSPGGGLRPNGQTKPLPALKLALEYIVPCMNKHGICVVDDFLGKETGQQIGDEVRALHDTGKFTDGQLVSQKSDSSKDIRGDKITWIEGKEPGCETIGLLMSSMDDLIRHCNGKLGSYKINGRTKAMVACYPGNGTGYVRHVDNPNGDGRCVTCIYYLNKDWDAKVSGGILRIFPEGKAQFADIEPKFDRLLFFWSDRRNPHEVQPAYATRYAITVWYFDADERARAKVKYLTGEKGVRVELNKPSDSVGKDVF
T2 sequence (P13674 18-534 isoform P13674-2): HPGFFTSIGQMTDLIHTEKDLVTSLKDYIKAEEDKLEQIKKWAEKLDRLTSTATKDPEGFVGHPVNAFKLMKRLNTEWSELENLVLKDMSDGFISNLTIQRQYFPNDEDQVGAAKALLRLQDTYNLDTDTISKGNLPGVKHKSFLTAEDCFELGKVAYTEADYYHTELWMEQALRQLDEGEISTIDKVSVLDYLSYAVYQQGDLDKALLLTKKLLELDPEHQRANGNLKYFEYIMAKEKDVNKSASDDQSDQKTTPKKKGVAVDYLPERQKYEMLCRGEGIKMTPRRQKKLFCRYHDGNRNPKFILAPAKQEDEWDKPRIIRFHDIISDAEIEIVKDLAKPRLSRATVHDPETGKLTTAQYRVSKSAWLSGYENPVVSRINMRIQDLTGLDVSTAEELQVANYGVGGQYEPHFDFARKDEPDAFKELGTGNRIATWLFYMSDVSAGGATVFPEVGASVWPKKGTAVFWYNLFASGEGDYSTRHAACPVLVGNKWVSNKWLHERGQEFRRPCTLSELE
T2 sequence (P07237 18-508 partner): as the sequence (P07237 18-508 partner) above

Turning to `Cn1c(=O)c(C(=O)NCC(=O)O)c(O)c2ccc(Br)cc21` [Comparative Example 3, reference compound], the IC50 was determined as 111 nM in experiment [1], 351 nM in experiment [2] and 46 nM in experiment [3] (setting [4]).
`Cn1c(=O)c(C(=O)CCC(=O)O)c(O)c2ccc(C(F)(F)F)nc21` [Example 3, 4-(4-hydroxy-1-methyl-2-oxo-7-(trifluoromethyl)-1,2-dihydro-1,8-naphthyridin-3-yl)-4-oxobutanoic acid]: half-maximal inhibition in experiment [3] (setting [5]) (IC50) required 64.5 nM.
With `Cn1c(=O)c(C(=O)NCC(=O)O)c(O)c2c(Br)cccc21` [Comparative Compound 1, reference compound], the IC50 stood at 58 nM in experiment [1], 341 nM in experiment [2] and 188 nM in experiment [3] (setting [4]).
For `Cn1c(=O)c(C(=O)CCC(=O)O)c(O)c2ccc(F)c(F)c21` [Example 10, 4-(7,8-difluoro-4-hydroxy-1-methyl-2-oxo-1,2-dihydroquinolin-3-yl)-4-oxobutanoic acid], in experiment [3] (setting [5]), it took 285 nM to reach half-maximal inhibition (IC50).
For `Cn1c(=O)c(C(=O)NCC(=O)O)c(O)c2cc(Br)ccc21` [Comparative Compound 2, reference compound], the results for the IC50 in experiment [1], in experiment [2] and in experiment [3] (setting [4]) were 115 nM, 404 nM and 351 nM, respectively.
As to `Cn1c(=O)c(C(=O)CCC(=O)O)c(O)c2cc(I)cnc21` [Example 1, 4-(4-hydroxy-6-iodo-1-methyl-2-oxo-1,2-dihydro-1,8-naphthyridin-3-yl)-4-oxobutanoic acid], the IC50 in experiment [3] (setting [5]) was found to be 208 nM.
For `O=C(O)CCC(=O)c1c(O)c2ccc(F)c(F)c2n(Cc2ccccc2)c1=O` [Example 6, 4-(1-benzyl-7,8-difluoro-4-hydroxy-2-oxo-1,2-dihydroquinolin-3-yl)-4-oxobutanoic acid], the IC50 in experiment [3] (setting [5]) came to 135 nM. Compared with the last molecule, the IC50 is about 1.5-fold lower.
Consider `Cn1c(=O)c(C(=O)CCC(=O)O)c(O)c2ccccc21` [Example 5, 4-(4-hydroxy-1-methyl-2-oxo-1,2-dihydroquinolin-3-yl)-4-oxobutanoic acid], for which it took 566 nM to reach half-maximal inhibition in experiment [3] (setting [5]) (IC50).
For the molecule `Cn1c(=O)c(C(=O)CCC(=O)O)c(O)c2cccc(Br)c21` [Example 2, 4-(8-bromo-4-hydroxy-1-methyl-2-oxo-1,2-dihydroquinolin-3-yl)-4-oxobutanoic acid], the IC50 in experiment [1] worked out at 1870 nM; in experiment [2], 22700 nM; in experiment [3] (setting [5]), 775 nM.
With `Cn1c(=O)c(C(=O)CCC(=O)O)c(O)c2ccc(Br)cc21` [Example 4, 4-(7-bromo-4-hydroxy-1-methyl-2-oxo-1,2-dihydroquinolin-3-yl)-4-oxobutanoic acid], the IC50 in experiment [1] stood at 13400 nM; in experiment [3] (setting [5]) it was 64.9 nM; in experiment [3] (setting [4]) it was 64.9 nM.
As to `Cn1c(=O)c(C(=O)NCC(=O)O)c(O)c2cccc(Br)c21` [Comparative Example 4, reference compound], the IC50 came out at 261 nM in experiment [1], 503 nM in experiment [2] and 104 nM in experiment [3] (setting [4]).
For `Cn1c(=O)c(C(=O)CCC(=O)O)c(O)c2cc(Br)ccc21` [Example 7, 4-(6-bromo-4-hydroxy-1-methyl-2-oxo-1,2-dihydroquinolin-3-yl)-4-oxobutanoic acid], the results for the IC50 in experiment [1] and in experiment [3] (setting [5]) were 3820 nM and 309 nM, respectively.
In experiment [3] (setting [5]), `Cn1c(=O)c(C(=O)CCC(=O)O)c(O)c2ccc(-c3ccc(C(=O)O)cc3)cc21` [Example 11, 4-(3-(3-carboxypropanoyl)-4-hydroxy-1-methyl-2-oxo-1,2-dihydroquinolin-7-yl)benzoic acid] had an IC50 of 11.4 nM.
In experiment [3] (setting [5]), `Cn1c(=O)c(C(=O)CCC(=O)O)c(O)c2c(F)ccc(F)c21` [Example 9, 4-(5,8-difluoro-4-hydroxy-1-methyl-2-oxo-1,2-dihydroquinolin-3-yl)-4-oxobutanoic acid] registered an IC50 of 779 nM.
Turning to `Cn1c(=O)c(C(=O)CCC(=O)O)c(O)c2c(Br)cccc21` [Example 8, 4-(5-bromo-4-hydroxy-1-methyl-2-oxo-1,2-dihydroquinolin-3-yl)-4-oxobutanoic acid], the IC50 in experiment [1] was 5280 nM; in experiment [3] (setting [5]), 343 nM.
